# From paper PMC10076467 (EJNMMI Research, 2023)
# pKi: −log10 of the molar value. Read-outs that look alike come from different tables or passages of the source.
# Key:
# [1] = molecular target: σ2 receptor; details: cited from earlier work
# [2] = molecular target: σ1 receptor; details: cited from earlier work
# [3] = molecular target: T1, GluN2B receptors (Rattus norvegicus, UniProt P35439+Q00960); experiment: ED50 for pre-blocking of GluN2B radioligand uptake in rat whole brain (PET); format: in vivo; details: for effect of pre-administration on whole rat brain radioactivity uptake of GluN2B radioligands: ^11C-NR2B-Me enantiomers (also ^11C-(S)-NR2B-SMe); for ED50 in rat whole brain in vivo ^11C-(+)-NR2B-Me / ED50 in rat whole brain in vivo ^11C-(−)-NR2B-Me: pre-blocking, AUC 20-90 min; for ED50 in rat whole brain in vivo ^11C-(+)-NR2B-Me: radioligand ^11C-(+)-NR2B-Me; for ED50 in rat whole brain in vivo ^11C-(−)-NR2B-Me: radioligand ^11C-(−)-NR2B-Me
# T1 construct: from tissue; host or cells: brain of living male rats (PET imaging)
# Experimental: For radioligand injection, a polyethylene catheter (PE 10) was inserted into the penile vein of a male rat and then secured with tissue adhesive and tape. […] Body temperature was monitored with a rectal probe. All PET scans were performed on a microPET Focus 220 scanner (Siemens Medical Solutions) (7,8). Data were acquired in listmode and reconstructed with Fourier rebinning + 2D filtered backprojection. A transmission scan was acquired before radioligand injection for attenuation correction. Dynamic scanning began at the time of a one-minute intravenous bolus injection of the radioligand under study (55 ± 19 MBq; volume 0.2 to 1.0 mL). The injected mass dose was 3 ± 1 nmol/kg. Challenge agents were administered intravenously 10 minutes before the radioligand for pre-blocking studies or 10 minutes after the radioligand for displacement studies. Tomographic images were analyzed with pixel-wise modeling computer software (PMOD 2.6; PMOD Group). Regions-of-interest in the brain were delineated, and time-activity curves calculated as SUV versus time.
# Pre-blocking and displacement experiments were performed to assess radioligand target engagement and radioligand selectivity in vivo. […] Areas-under the curve (AUCs) from time-activity curves between 20 and 90 minutes were calculated for each radioligand. AUCs obtained from the same production of radioligand were scaled to the value (or mean value) for the baseline experiment to give relative values (relative AUC20–90 min). […] Where data permitted, the dose-response curves were fitted with GraphPad Prism software (version 8.1.1; GraphPad) to estimate the ED50 values. A dummy value of 100 pmol per kg body weight was used for zero concentration of the challenge agent in the construction of these dose-response curves. Numerical data are expressed as mean ± S.D. for n>2, or as mean and range for n = 2.
# [4] = molecular target: T2, GluN2B (Homo sapiens, UniProt Q05586+Q13224); details: cited from earlier work
# T2 construct: expressed in transfected cells; host or cells: transiently transfected mouse fibroblast cells (membrane homogenate)
# [5] = rat, 30 min after intravenous injection; cited from earlier work
# [6] = set-up: method as in PMID 30030340; details: rhesus monkeys, PET; cited from earlier work
# [7] = molecular target: T3, σ1 receptors (Rattus norvegicus, UniProt Q9R0C9); experiment: ED50 for pre-blocking of ^18F-FTC146 uptake in rat whole brain (PET); format: in vivo; details: rat whole brain
# T3 construct: from tissue; host or cells: brain of living male rats (PET imaging)
# Experimental: For radioligand injection, a polyethylene catheter (PE 10) was inserted into the penile vein of a male rat and then secured with tissue adhesive and tape. For dynamic scanning, the rats were secured with tape in the scanner and kept under 1.5% isoflurane anesthesia via a nose cone. Body temperature was monitored with a rectal probe. All PET scans were performed on a microPET Focus 220 scanner (Siemens Medical Solutions) (7,8). Data were acquired in listmode and reconstructed with Fourier rebinning + 2D filtered backprojection. A transmission scan was acquired before radioligand injection for attenuation correction. Dynamic scanning began at the time of a one-minute intravenous bolus injection of the radioligand under study (55 ± 19 MBq; volume 0.2 to 1.0 mL). The injected mass dose was 3 ± 1 nmol/kg. Challenge agents were administered intravenously 10 minutes before the radioligand for pre-blocking studies or 10 minutes after the radioligand for displacement studies. Tomographic images were analyzed with pixel-wise modeling computer software (PMOD 2.6; PMOD Group). Regions-of-interest in the brain were delineated, and time-activity curves calculated as SUV versus time.
# Pre-blocking and displacement experiments were performed to assess radioligand target engagement and radioligand selectivity in vivo. Normally 4 doses of 0.01 mg/kg, 0.05 mg/kg, 0.25 mg/kg, and 1.25 mg/kg were used for preblocking experiments, and only 2 doses of 0.25 mg/kg and 1.25 mg/kg were used for displacement experiments. […] […] […] […] Where data permitted, the dose-response curves were fitted with GraphPad Prism software (version 8.1.1; GraphPad) to estimate the ED50 values. A dummy value of 100 pmol per kg body weight was used for zero concentration of the challenge agent in the construction of these dose-response curves. Numerical data are expressed as mean ± S.D. for n>2, or as mean and range for n = 2.
# [8] = molecular target: T1, GluN2B receptors; set-up: method as in PMID 31924728; details: pre-blocking, radioligand ^11C-(S)-NR2B-SMe; cited from earlier work
# T1 sequence (Q00960 27-1482, other chains not shown): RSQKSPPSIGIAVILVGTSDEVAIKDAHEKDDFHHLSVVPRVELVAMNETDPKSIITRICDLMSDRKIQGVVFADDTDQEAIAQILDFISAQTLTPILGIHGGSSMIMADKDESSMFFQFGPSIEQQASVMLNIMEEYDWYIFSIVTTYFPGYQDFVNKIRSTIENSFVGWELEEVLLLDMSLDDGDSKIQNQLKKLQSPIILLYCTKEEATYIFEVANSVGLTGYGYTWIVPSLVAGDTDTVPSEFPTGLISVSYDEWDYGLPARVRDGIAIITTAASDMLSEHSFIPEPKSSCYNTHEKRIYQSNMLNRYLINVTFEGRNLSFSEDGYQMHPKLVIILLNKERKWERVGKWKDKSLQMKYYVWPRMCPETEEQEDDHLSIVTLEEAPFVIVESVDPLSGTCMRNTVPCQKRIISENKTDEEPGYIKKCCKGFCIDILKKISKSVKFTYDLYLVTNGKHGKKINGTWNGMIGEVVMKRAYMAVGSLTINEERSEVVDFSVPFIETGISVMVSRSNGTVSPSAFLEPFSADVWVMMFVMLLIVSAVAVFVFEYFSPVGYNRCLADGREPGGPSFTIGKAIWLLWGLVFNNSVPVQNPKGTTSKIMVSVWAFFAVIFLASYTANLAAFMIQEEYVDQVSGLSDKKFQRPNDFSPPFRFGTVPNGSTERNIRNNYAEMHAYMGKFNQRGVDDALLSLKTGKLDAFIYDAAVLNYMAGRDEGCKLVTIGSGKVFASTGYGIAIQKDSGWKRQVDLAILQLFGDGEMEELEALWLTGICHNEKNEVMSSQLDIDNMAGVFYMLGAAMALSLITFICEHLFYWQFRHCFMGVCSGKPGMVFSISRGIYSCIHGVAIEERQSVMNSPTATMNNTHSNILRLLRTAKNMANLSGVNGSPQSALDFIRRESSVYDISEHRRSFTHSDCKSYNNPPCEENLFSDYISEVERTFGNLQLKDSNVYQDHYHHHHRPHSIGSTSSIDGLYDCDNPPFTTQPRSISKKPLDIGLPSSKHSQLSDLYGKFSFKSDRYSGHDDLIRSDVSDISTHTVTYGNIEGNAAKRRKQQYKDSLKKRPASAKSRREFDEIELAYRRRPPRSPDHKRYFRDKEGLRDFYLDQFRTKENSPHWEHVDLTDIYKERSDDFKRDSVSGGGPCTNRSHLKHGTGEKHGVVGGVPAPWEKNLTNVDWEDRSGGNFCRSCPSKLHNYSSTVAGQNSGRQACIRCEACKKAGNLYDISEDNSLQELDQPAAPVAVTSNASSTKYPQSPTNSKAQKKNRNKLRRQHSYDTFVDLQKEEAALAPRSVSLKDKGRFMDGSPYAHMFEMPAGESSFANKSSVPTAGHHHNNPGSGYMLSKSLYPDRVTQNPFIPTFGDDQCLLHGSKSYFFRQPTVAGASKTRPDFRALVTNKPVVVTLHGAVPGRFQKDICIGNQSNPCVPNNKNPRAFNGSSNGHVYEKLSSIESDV
# T2 sequence (Q13224 27-1484, species assumed, other chains not shown): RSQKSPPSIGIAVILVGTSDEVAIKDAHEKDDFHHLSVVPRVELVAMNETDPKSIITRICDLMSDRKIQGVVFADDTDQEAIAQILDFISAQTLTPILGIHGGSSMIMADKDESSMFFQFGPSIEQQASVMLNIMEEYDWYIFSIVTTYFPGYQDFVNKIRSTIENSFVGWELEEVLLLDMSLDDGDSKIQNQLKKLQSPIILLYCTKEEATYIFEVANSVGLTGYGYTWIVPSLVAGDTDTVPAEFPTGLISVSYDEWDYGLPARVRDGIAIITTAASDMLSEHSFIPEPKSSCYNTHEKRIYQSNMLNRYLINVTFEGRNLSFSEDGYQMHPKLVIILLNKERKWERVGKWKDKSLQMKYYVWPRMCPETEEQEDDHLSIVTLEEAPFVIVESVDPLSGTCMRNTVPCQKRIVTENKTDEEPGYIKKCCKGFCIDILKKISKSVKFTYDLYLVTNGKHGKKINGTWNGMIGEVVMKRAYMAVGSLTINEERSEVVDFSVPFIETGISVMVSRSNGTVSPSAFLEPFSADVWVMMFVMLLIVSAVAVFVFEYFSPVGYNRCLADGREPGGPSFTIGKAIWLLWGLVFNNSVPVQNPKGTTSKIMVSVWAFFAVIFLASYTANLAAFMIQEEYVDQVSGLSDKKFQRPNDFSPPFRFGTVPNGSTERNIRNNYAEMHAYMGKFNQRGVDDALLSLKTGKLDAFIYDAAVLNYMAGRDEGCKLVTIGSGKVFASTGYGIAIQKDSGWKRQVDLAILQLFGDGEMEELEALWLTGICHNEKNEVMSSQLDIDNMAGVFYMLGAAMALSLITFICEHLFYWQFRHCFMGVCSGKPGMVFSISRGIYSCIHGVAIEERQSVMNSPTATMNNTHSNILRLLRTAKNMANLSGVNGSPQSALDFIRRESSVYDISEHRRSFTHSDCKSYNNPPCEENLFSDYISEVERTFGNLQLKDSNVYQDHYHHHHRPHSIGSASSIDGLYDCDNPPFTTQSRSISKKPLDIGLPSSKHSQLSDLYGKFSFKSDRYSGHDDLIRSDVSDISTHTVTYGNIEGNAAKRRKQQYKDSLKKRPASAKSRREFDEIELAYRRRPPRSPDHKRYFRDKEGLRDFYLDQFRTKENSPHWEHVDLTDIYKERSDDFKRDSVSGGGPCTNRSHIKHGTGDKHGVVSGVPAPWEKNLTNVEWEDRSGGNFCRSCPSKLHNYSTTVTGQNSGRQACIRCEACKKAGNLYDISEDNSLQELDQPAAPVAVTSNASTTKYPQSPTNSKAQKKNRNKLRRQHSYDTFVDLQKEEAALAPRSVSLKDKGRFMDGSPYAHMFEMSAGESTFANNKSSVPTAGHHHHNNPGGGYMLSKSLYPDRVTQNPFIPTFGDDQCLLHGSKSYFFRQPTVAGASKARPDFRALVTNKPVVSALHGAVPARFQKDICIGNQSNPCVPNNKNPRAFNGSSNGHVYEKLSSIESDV
# T3 sequence (Q9R0C9 whole entry): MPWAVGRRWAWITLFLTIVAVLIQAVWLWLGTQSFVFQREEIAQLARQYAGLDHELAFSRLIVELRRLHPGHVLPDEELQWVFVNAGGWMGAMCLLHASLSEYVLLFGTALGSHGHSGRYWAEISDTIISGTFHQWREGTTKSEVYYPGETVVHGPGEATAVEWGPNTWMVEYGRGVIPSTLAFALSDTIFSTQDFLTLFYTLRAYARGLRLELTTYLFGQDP
structure (smiles),measurement,setting,value
OC12C3C4CC5C6C4C1C6C(C53)N2CCc1cccc(F)c1 (centres unmarked) [TC1],pKi,"[1]; reference radioligand ^3H-DTG, ref 40, read-out: Ki for σ2",6.43
same,pKi,"[2]; reference radioligand ^3H-pentazocine, ref 40, read-out: Ki for σ1",8.00
same,effect of pre-administration on whole rat brain radioactivity uptake of GluN2B radioligands,[3],strong pre-blocking effects
same,ED50 in rat whole brain in vivo ^11C-(+)-NR2B-Me,[3],64 nmol/kg
same,ED50 in rat whole brain in vivo ^11C-(−)-NR2B-Me,[3],48 nmol/kg
COC(=O)C1(c2ccc(C)cc2)CC1CN1CCC(O)(c2ccccc2)CC1 (racemic) [( ±)-PPCC],pKi,"[1]; reference radioligand ^3H-DTG, ref 45, read-out: Ki for σ2",7.29
same,pKi,"[2]; reference radioligand ^3H-pentazocine, ref 45, read-out: Ki for σ1",8.82
same,ED50 in rat whole brain in vivo ^11C-(−)-NR2B-Me,[3],> 1000 nmol/kg
C[C@@H](CN1CCC(Cc2ccccc2)CC1)[C@@H](O)c1ccc(O)cc1 [Ro-25-6981],pKi,[4],8.05
COc1ccc2c(c1)CCN(CCCCc1ccccc1[18F])C[C@@H]2O [^18F-(R)-OF-Me-NB1],radioactivity in cerebellum as % of that in cortex,[5],73%
same,radioactivity in cerebellum as % of that in hippocampus,[5],74%
same,radioactivity in cerebellum as % of that in striatum,[5],77%
same,radioactivity in cerebellum as % of that in thalamus,[5],75%
same,"SUVR relative to cerebellum, cortex",[6],1.37
same,"SUVR relative to cerebellum, hippocampus",[6],1.36
same,"SUVR relative to cerebellum, striatum",[6],1.30
same,"SUVR relative to cerebellum, thalamus",[6],1.33
O=C(OCCN1CCOCC1)C1(c2ccccc2)CCCCC1 [PRE-084],ED50 in rat whole brain in vivo ^11C-(−)-NR2B-Me,[3],> 1000 nmol/kg
COc1ccc2c(c1)CCN(CCCCc1ccc(SC)cc1)C[C@H]2O [(S)-NR2B-SMe],pKi,[1]; read-out: σ2 Ki,6.85
same,pKi,[2]; read-out: σ1 Ki,7.62
same,ED50 versus ^18F-FTC146,[7],exceeded 1 µmol per kg body weight
"Cc1ccc(CC2(O)CCN(CCOc3ccc(O)cc3)CC2)cc1 [CO101,244]",ED50 in rat whole brain in vivo ^11C-(S)-NR2B-SMe,[8],74 nmol/kg
same,pKi,[4],7.37
same,ED50,"[3]; rat, read-out: ED50 in rat whole brain in vivo ^11C-(+)-NR2B-Me",0.041 µmol/kg
CC(C)=CCN1CC[C@]2(C)c3cc(O)ccc3C[C@H]1[C@H]2C [(+)-Pentazocine],ED50 in rat whole brain in vivo ^11C-(−)-NR2B-Me,[3],> 1000 nmol/kg
COc1ccc(CCN2CCN(CCCc3ccccc3)CC2)cc1OC [SA4503],pKi,"[1]; reference radioligand ^3H-DTG, ref 38, 43, read-out: Ki for σ2",7.20
same,pKi,"[1]; reference radioligand ^3H-DTG, ref 41, 42, read-out: Ki for σ2",5.75
same,pKi,"[2]; reference radioligand ^3H-pentazocine, ref 38, 43, read-out: Ki for σ1",8.34
same,pKi,"[2]; reference radioligand ^3H-pentazocine, ref 41, 42, read-out: Ki for σ1",7.76
same,effect of pre-administration on whole rat brain radioactivity uptake of GluN2B radioligands,[3],strong pre-blocking effects
same,ED50 in rat whole brain in vivo ^11C-(+)-NR2B-Me,[3],41 nmol/kg
same,ED50 in rat whole brain in vivo ^11C-(−)-NR2B-Me,[3],43 nmol/kg
